Results from patent US12616751B2, “Photosensitizing antibody-fluorophore conjugates” (The USA, as represented by the Secretary, Department of …, priority 2010, dated 2026).

How the values were obtained:
[1] = IR700 at absorption maximum 689 nm; Photofrin 630 nm; Foscan 652 nm; NPe6 654 nm; cited from earlier work
[2] = Extinction coefficient of photosensitizers; assay type: physicochemical
Description: Currently commercially available from LI-COR (Lincoln, Nebr.). IR700 has several favorable chemical properties. Amino-reactive IR700 is a relatively hydrophilic dye and can be covalently conjugated with an antibody using the NHS ester of IR700. IR700 also has more than 5-fold higher extinction coefficient (2.1×10^5 M^−1cm^−1 at the absorption maximum of 689 nm), than conventional photosensitizers such as the hematoporphyrin derivative Photofrin® (1.2×10^3 M^−1cm^−1 at 630 nm), meta-tetrahydroxyphenylchlorin; Foscan® (2.2×10^4 M^−1cm^−1 at 652 nm), and mono-L-aspartylchlorin e6; NPe6/Laserphyrin® (4.0×10^4 M^−1cm^−1 at 654 nm).

3T3/HER2+ cells = assay: Photoimmunotherapy (PIT) phototoxicity, LIVE/DEAD assay; assay type: cell-based; settings: 200 nM, equivalent IR700 concentration of conjugate
Method: Cells were grown in RPMI 1640 supplemented with 10% fetal bovine serum and 1% penicillin/streptomycin in tissue culture flasks in a humidified incubator at 37° C. in an atmosphere of 95% air and 5% carbon dioxide.
Culture medium was replaced with phenol red-free medium after washing with phosphate buffered saline (PBS).

[3] = Excretion of free and catabolized IR700; settings: in vivo
MDA-MB-468 tumors = assay: In vivo delivery of Pan-IR800 after Pan-IR700 PIT; design: species or system mice; settings: 50 J/cm2 to right side tumor; agent 1 h after PIT
Description: In vivo fluorescence imaging. Five days after injection of two million A431 or 3T3-HER2 cells in right and left dorsums, and seven days after MDA-MB-468 cells injection in mammary pads, tumor volumes of approximately 75 mm^3 were selected. Signals of IR700 and IR800 was detected with a fluorescence camera (Pearl Imager, LI-COR Biosciences) using the 700 and 800 nm fluorescence channel Qdot800 was detected with Maestro in vivo Imaging System (CRi) using a band-pass filter, which ranges between 575 to 605 nm (excitation) and a long-pass NIR filter over 800 nm (emission). Fluorescence images of daunorubicin were also obtained with Maestro using a band-pass filter from 503 to 555 nm (excitation) and a long-pass green filter over 580 nm (emission). The tunable emission filter was automatically stepped in 10 nm increments from 650 to 950 nm and from 500 to 800 nm for the NIR and green filter sets at constant exposure. The spectral fluorescence images consist of autofluorescence spectra and the spectra from Qdot800 and daunorubicin, which were then unmixed, based on their spectral patterns using commercial software (Maestro software; CRi). Mice were sacrificed with carbon dioxide immediately after in vivo imaging. The tumors were excised, and frozen or paraffin-embedded for histological study and fluorescence microscopy study after ex vivo imaging. […]

A431 tumors = assay: In vivo nanodrug-delivery after PIT (super EPR); design: species or system mice
Method: In vivo nanodrug-delivery after photoimmunotherapy. Six-week-old to 8-week-old female homozygote athymic nude mice were purchased from Charles River (National Cancer Institute Frederick). During treatment, mice were anesthetized with isoflurane. Two million A431 cells were injected subcutaneously in the right and left dorsums of each mouse. Five days after cell injection, 100 μg of Pan-IR700 was administered intravenously, and 1 day later, either side of tumor was irradiated with NIR light from a red-light-emitting diode at wavelengths of 670-690 nm and a power density of 10-100 J cm^−2, as measured with an optical power meter (PM 100 (Thorlabs)). One hour after PIT, Pan-IR800 (100 μg), Qtracker 800 Non-Targeted Quantum dots (32.5 pmol), or DaunoXome (30 mg kg^−1) were injected intravenously, and the in vivo fluorescence images were obtained with a Pearl Imager (LI-COR Biosciences) and a Maestro Imager (CRi). For MR imaging, SPIO (Feridex) was administered intravenously 1 h post-PIT and MR images were obtained. The tumors were excised, and frozen or paraffin-embedded for histological study and fluorescence microscopy study after ex vivo imaging.
In vivo fluorescence imaging. Five days after injection of two million A431 or 3T3-HER2 cells in right and left dorsums, and seven days after MDA-MB-468 cells injection in mammary pads, tumor volumes of approximately 75 mm^3 were selected. Signals of IR700 and IR800 was detected with a fluorescence camera (Pearl Imager, LI-COR Biosciences) using the 700 and 800 nm fluorescence channel Qdot800 was detected with Maestro in vivo Imaging System (CRi) using a band-pass filter, which ranges between 575 to 605 nm (excitation) and a long-pass NIR filter over 800 nm (emission). Fluorescence images of daunorubicin were also obtained with Maestro using a band-pass filter from 503 to 555 nm (excitation) and a long-pass green filter over 580 nm (emission). The tunable emission filter was automatically stepped in 10 nm increments from 650 to 950 nm and from 500 to 800 nm for the NIR and green filter sets at constant exposure. The spectral fluorescence images consist of autofluorescence spectra and the spectra from Qdot800 and daunorubicin, which were then unmixed, based on their spectral patterns using commercial software (Maestro software; CRi). Mice were sacrificed with carbon dioxide immediately after in vivo imaging. The tumors were excised, and frozen or paraffin-embedded for histological study and fluorescence microscopy study after ex vivo imaging.
Fluorescence microscopy. Ten-μm-thick frozen or paraffin sections were prepared and fluorescence in tumor sections was detected using an Olympus BX81 microscope (Olympus America, Inc., Melville, N.Y.) equipped with the following filters: excitation wavelength 590 to 650 nm, and 480 to 550 nm, emission wavelength 662.5 to 747.5 nm, 765 to 855 nm, and 590 nm long pass for IR700, Qdot800, and daunorubicin, respectively. Transmitted light differential interference contrast images were also acquired. H&E staining and Prussian Blue staining were performed according to standard protocol.
Optimal timing of second shot. To determine the optimal timing of second shot, Pan-IR800 (100 μg) was administered intravenously into A431 bearing mice at 1, 6, and 24 h after PIT treatment, and the dynamic imaging for 1 h was carried out with Pearl Imager according to the protocol described above.

In the case of `Oc1cccc(-c2c3nc(c(-c4cccc(O)c4)c4ccc([nH]4)c(-c4cccc(O)c4)c4nc(c(-c5cccc(O)c5)c5ccc2[nH]5)CC4)C=C3)c1` [Foscan®, meta-tetrahydroxyphenylchlorin], the extinction coefficient [1] is listed as 22000 M⁻¹ cm⁻¹.
In the case of `C=Cc1c(C)c2cc3nc(c(CC(=O)N[C@@H](CC(=O)[O-])C(=O)[O-])c4[nH]c(cc5nc(cc1[nH]2)C(C)=C5CC)c(C)c4C(=O)[O-])[C@@H](CCC(=O)[O-])[C@@H]3C.[Na+].[Na+].[Na+].[Na+]` [NPe6/Laserphyrin®, mono-L-aspartylchlorin e6], the extinction coefficient [1] is listed as 40000 M⁻¹ cm⁻¹.
In the case of IRDye® 700DX [IR700], the “extinction coefficient higher than conventional photosensitizers” value [2] is given as “more than 5 fold”, the extinction coefficient [1] is given as 210000 M⁻¹ cm⁻¹ and the “phototoxicity of dye alone” value (3T3/HER2+ cells) is given as “did not incorporate into the cells or induce phototoxcity in cells”. For the same compound, the organ accumulation [3] was “without accumulation in any specific organ” and the “time to excretion into urine” value [3] was at most 1 h.
For “Pan-IR800: panitumumab conjugated to IRDye 800CW”, the “tumor shown in dynamic images” value (MDA-MB-468 tumors) was “only the right sided tumor was clearly shown up within 10 min”, the “change of perfusion by PIT with time after treatment” value (A431 tumors; Pan-IR800 given 1, 6, and 24 h after PIT) was “completely stopped within 24 h” and the “uptake/signal in control tumors without NIR light” value (A431 tumors; agent i.v. 1 h after PIT of contralateral tumor) was “no change on signal intensities”. The “accumulation in PIT-treated tumors” value (A431 tumors; agent i.v. 1 h after Pan-IR700 PIT) was “facilitated the permeability”, the “signal intensities in PIT-treated tumors versus light dose” value (A431 tumors; mouse, in vivo) was “increased with time in a light dose-dependent manner” and the “tumor uptake when given 24 h after PIT” value (A431 tumors; mouse, in vivo) was “cannot be taken up by the tumor”.
For Photofrin®, the extinction coefficient [1] is listed as 1200 M⁻¹ cm⁻¹.
